In paper PMC3408433, “Selective Cytotoxicity of Amidinopiperidine Based Compounds Towards Burkitt’s Lymphoma Cells Involves Proteasome Inhibition” (PLoS ONE, 2012):
Read-outs that look alike come from different tables or passages of the source.

How the values were obtained:
[1] = biological target: Factor Xa; design: method as in PMID 15497744, PMID 15544050, PMID 17484277; conditions: amidolytic assay, chromogenic substrate; determined previously; cited from earlier work
[2] = biological target: Trypsin; design: method as in PMID 15497744, PMID 15544050, PMID 17484277; conditions: amidolytic assay, chromogenic substrate; determined previously; cited from earlier work
[3] = biological target: α-chymotrypsin (Bos taurus, UniProt P00766); experiment: α-Chymotrypsin inhibition assay
Description: In short, a 1 nM solution of α-chymotrypsin was mixed with various concentrations of the substrate Suc-Ala-Ala-Pro-Phe-AMC. All the solutions were prepared in 144 mM Tris–HCl, pH 7.8. Substrate hydrolysis was monitored at 30°C on an automated Tecan Safire^2 microplate reader (Tecan, Mannedorf/Zürich, Switzerland). The initial rates of the reactions (ΔF/Δt) were measured immediately after the addition of the substrate (within 200 s) and plotted versus substrate concentration with nonlinear regression to fit a Michaelis-Menten plot. The curve fit and kinetic parameters (Km and v max) were calculated using GraphPad PRISM version 5.0 software (GraphPad Software, Inc., CA, USA). […] The initial velocities of the hydrolysis reactions were measured under the same conditions as described for the determination of Km. 50 µl of α-chymotrypsin solution was added to 50 µl of each inhibitor solution (prepared in 144 mM Tris–HCl, pH 7.8; final concentration 1 nM) and incubated at 30°C for 15 min. The reaction was initiated with the addition of 100 µl of substrate. […] The Ki values were determined as mean values of all measurements.

[4] = biological target: Thrombin; design: method as in PMID 15497744, PMID 15544050, PMID 17484277; conditions: amidolytic assay, chromogenic substrate; determined previously; cited from earlier work
[5] = test system: Ramos Burkitt’s lymphoma cells; experiment: Metabolic activity assay (MTS), Ramos; type: cell-based, human; conditions: 24 h; for cytotoxicity group (Figure 3A) / viability at 100 µM: 100 µM; for viability at 100 µM: Homo sapiens, read-out: residual metabolic activity relative to untreated control
Description: When investigating the potency of selected serine protease inhibitors to induce cell death in human B lymphoma cells, we identified a set of compounds cytotoxic for Burkitt’s lymphoma. Using a metabolic activity assay (MTS), we evaluated the proliferation rate of Ramos Burkitt’s lymphoma cells, in the presence of serine protease inhibitors. Cells were treated for 24 h with the compound of interest at concentrations of 100 µM (1–13, 15, 16) or 50 µM (14). After a comparison of metabolic activity relative to that in the untreated control, three groups with distinct modes of action were determined (Figure 3A). […] The second group (compounds 1–3, 5, 7 and 13) caused a moderate decrease (50% to 80%) relative to untreated cells. The last group of compounds (11, 15, 16) severely impaired the metabolic activity, such that it fell to under 6%.
(§1) Cells (1×10^5 cells/mL for Ramos, Daudi, U937 and Jurkat, and 1×10^6 cells/mL for PBMC) were treated with the appropriate amounts of compounds of interest or corresponding vehicle (control cells), then seeded in triplicate in 96 well plates. The metabolic activity was assessed using the CellTiter 96® Aqueous One Solution Cell Proliferation Assay (Promega, Madison/WI, USA), in accordance with the manufacturer’s instructions.

[6] = test system: human T cell leukaemia (Jurkat); experiment: Metabolic activity assay (MTS), Jurkat; type: cell-based; conditions: 50 µM, 24 h
Description: (§2) Compounds 11, and 14–16 were further tested for selective cytotoxicity. The experiments were conducted on freshly isolated primary peripheral blood mononuclear cells (PBMC) and three other haematological cancers: human T cell leukaemia (Jurkat), human histiocytic lymphoma (U937) and human Burkitt’s lymphoma (Daudi). An MTS assay was performed following 24 h of treatment with the compound of interest at 50 µM. […] The inhibition of proliferation in Ramos cells, mediated with compounds 15 and 16, was concentration dependent.
as §1

[7] = test system: peripheral blood mononuclear cells (PBMC); experiment: Metabolic activity assay (MTS), PBMC; type: cell-based, human; conditions: 50 µM, 24 h
Description: as §2, §1

[8] = test system: human Burkitt’s lymphoma (Daudi); experiment: Metabolic activity assay (MTS), Daudi; type: cell-based; conditions: 50 µM, 24 h
Description: as §2, §1

[9] = test system: human histiocytic lymphoma (U937); experiment: Metabolic activity assay (MTS), U937; type: cell-based; conditions: U937, 50 µM, 24 h
Description: as §2, §1

[10] = Solubility remark; type: physicochemical; conditions: reason for testing at 50 µM

solubility [10]	SMILES	Ki [1] [µM]	Ki [2] [µM]	Ki [3] [µM]	Ki [4] [µM]	cytotoxicity group (Figure 3A) [5]	viability at 100 µM [5] [%]	Ki ([3]; read-out: Ki α-chymotrypsin, substrate Suc-Ala-Ala-Pro-Phe-AMC, pH 7.8, 30°C) [µM]	residual metabolic activity relative to control [6]	residual metabolic activity relative to control [7]	residual metabolic activity relative to control [8]	residual metabolic activity relative to control [9]	residual metabolic activity relative to control ([5]; 50 µM)
–	N/C(=N/O)c1ccc(CN(NC(=O)c2ccc3ccccc3c2)C(=O)N2CCCCCC2)cc1 [Compound 1]	78	660	33.5	5.2	moderately cytotoxic (caused a moderate decrease (50% to 80%) relative to untreated cells)	50 to 80	–	–	–	–	–	–
–	CC1CCN(C(=O)N(Cc2ccc(/C(N)=N\O)cc2)NC(=O)c2ccc3ccccc3c2)CC1 [Compound 2]	> 200	200	259	> 200	moderately cytotoxic (caused a moderate decrease (50% to 80%) relative to untreated cells)	50 to 80	–	–	–	–	–	–
–	N/C(=N\O)c1cccc(CN(NC(=O)c2ccc3ccccc3c2)C(=O)N2CCCCCC2)c1 [Compound 3]	60	> 100	3	4.8	moderately cytotoxic (caused a moderate decrease (50% to 80%) relative to untreated cells)	50 to 80	–	–	–	–	–	–
–	N/C(=N\O)c1cccc(CN(NS(=O)(=O)c2ccc3ccccc3c2)C(=O)N2CCOCC2)c1 [Compound 4]	60	48	41	3.1	well tolerated (well tolerated by Ramos, since their residual metabolic activity did not fall below 80%)	≥ 80	–	–	–	–	–	–
–	CC1CCN(C(=O)N(Cc2ccc(C#N)cc2)NC(=O)c2ccc3ccccc3c2)CC1 [Compound 5]	–	–	273	–	moderately cytotoxic (caused a moderate decrease (50% to 80%) relative to untreated cells)	50 to 80	–	–	–	–	–	–
–	CC1CCN(C(=O)N(Cc2cccc(C(=N)N)c2)NC(=O)c2ccc3ccccc3c2)CC1 [Compound 6]	5.7	1.8	17.1	6.8	well tolerated (well tolerated by Ramos, since their residual metabolic activity did not fall below 80%)	≥ 80	–	–	–	–	–	–
–	Nc1ccc(CN(NS(=O)(=O)c2ccc3ccccc3c2)C(=O)N2CCOCC2)cc1 [Compound 7]	62	5.6	4	4.5	moderately cytotoxic (caused a moderate decrease (50% to 80%) relative to untreated cells)	50 to 80	–	–	–	–	–	–
–	CC(=O)Nc1ccc(CN(NS(=O)(=O)c2ccc3ccccc3c2)C(=O)N2CCOCC2)cc1 [Compound 8]	–	–	24.7	–	well tolerated (well tolerated by Ramos, since their residual metabolic activity did not fall below 80%)	≥ 80	–	–	–	–	–	–
–	CC(=O)NCc1ccc(CN(NS(=O)(=O)c2ccc3ccccc3c2)C(=O)N2CCCCC2)cc1 [Compound 9]	–	–	40.6	–	well tolerated (well tolerated by Ramos, since their residual metabolic activity did not fall below 80%)	≥ 80	–	–	–	–	–	–
–	CC(C)CC(NS(=O)(=O)c1ccc2ccccc2c1)C(=O)NN(Cc1ccc(C(=N)N)cc1)C(=O)N1CCCCCC1 (centres unmarked) [Compound 10]	> 100	> 100	–	10	well tolerated (well tolerated by Ramos, since their residual metabolic activity did not fall below 80%)	≥ 80	8.8	–	–	–	–	–
–	CC1CCN(C(=O)N(CC2CCNCC2)NS(=O)(=O)c2ccc3ccccc3c2)CC1 [Compound 11]	–	> 200	38.8	19	severely cytotoxic (severely impaired the metabolic activity, such that it fell to under 6%)	< 6	–	under 40%	under 40%	under 40%	under 40%	under 40%
–	O=C(N1CCOCC1)N(CC1CCNCC1)NS(=O)(=O)c1ccc2ccccc2c1 [Compound 12]	–	> 200	150	53	well tolerated (well tolerated by Ramos, since their residual metabolic activity did not fall below 80%)	≥ 80	–	–	–	–	–	–
–	O=C(N1CCCCC1)N(CC1CCNCC1)NS(=O)(=O)c1ccc2ccccc2c1 [Compound 13]	–	> 200	65.9	30	moderately cytotoxic (caused a moderate decrease (50% to 80%) relative to untreated cells)	50 to 80	–	–	–	–	–	–
poor solubility	CC(=O)N1CCC(CN(NS(=O)(=O)c2ccc3ccccc3c2)C(=O)N2CCCCC2)CC1 [Compound 14]	–	–	47.7	–	–	–	–	under 40%	under 40%	under 40%	under 40%	–
